Publication PMC6851324, “Design and development of stapled transmembrane peptides that disrupt the activity of G-protein–coupled receptor oligomers” (The Journal of Biological Chemistry, 2019)
Where a SMILES comes first, the peptide text is derived from it. Bridges are numbered along the chain shown (N, C = ends). Where no end group is shown, it is not given here. [ ]: non-standard residue; d: D form. S5 = C=CCCC[C@](C)(N)C(=O)O; Nle = CCCC[C@H](N)C(=O)O

Each compound was assayed against T1, 5-HT2AR–CB1R heteromers (Homo sapiens, UniProt P28223) (assay: NanoBiT BiLC peptide screening assay (LgBiT–CB1R + SmBiT–5-HT2AR)). Settings: HEK293 cells transiently expressing LgBiT–CB1R and SmBiT–5-HT2AR, preincubated 1 h with 4 μM peptide, luminescence normalized to vehicle, n ≥ 5.
T1 construct: expressed in transfected cells; host or cells: HEK293 (ATCC CRL-1573), transient reverse transfection
T1 sequence (P28223 2-471, one chain of several): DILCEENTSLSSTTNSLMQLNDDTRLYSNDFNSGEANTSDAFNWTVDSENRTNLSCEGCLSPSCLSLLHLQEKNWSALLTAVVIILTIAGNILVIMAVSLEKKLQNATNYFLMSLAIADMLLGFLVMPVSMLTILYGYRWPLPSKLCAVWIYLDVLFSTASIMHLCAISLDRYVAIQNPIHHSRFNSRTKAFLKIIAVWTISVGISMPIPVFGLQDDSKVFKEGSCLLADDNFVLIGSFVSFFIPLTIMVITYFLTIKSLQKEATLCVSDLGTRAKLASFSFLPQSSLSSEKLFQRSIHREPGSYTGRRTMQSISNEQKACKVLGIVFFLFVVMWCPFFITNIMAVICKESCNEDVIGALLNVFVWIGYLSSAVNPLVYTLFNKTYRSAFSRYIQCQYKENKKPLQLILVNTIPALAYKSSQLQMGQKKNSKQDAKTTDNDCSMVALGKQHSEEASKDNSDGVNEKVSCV
Type: cell-based
Method: Figure 5. Identification of a small-stapled TM peptide disrupting 5-HT2AR–CB1R heteromers. A, schematic representation of the NanoBiT assay using N-terminally labeled constructs. In B, HEK293 cells transiently expressing the LgBT–CB1R and SmBiT–5-HT2AR complementary pairs were preincubated for 1 h at 37 °C with the indicated peptides (4 μM) or vehicle prior to luminescence recording. Data are mean RLU ± S.E. (error bars) (n ≥ 5) percentage of luminescence normalized to vehicle-treated cells. Statistical significance was evaluated by one-way ANOVA followed by Bonferroni post hoc tests, indicating significant differences over vehicle-treated cells (***, p ≤ 0.001; ****, p ≤ 0.0001) and for peptide 10 over its related peptides (####, p ≤ 0.0001). Peptide 10 potency (C) was evaluated as in A over increasing peptide concentrations (bottom) (n = 3). Alternatively, to assess the kinetics of the peptide 10–driven heteromer disruption (D), prior to the administration of the peptide, the cells were preincubated with substrate, and the luminescence was recorded over the following 30 min. Data are mean RLU ± S.E. (n ≥ 3) percentage of luminescence normalized to vehicle-treated cells.
To assess GPCR protein–protein interactions with the NanoBiT technology, HEK293 cells (50,000 cells/well) were seeded in poly-D-lysine–coated white clear bottom 96-well plates and reverse-transfected (see above) with the plasmids encoding the complementary NanoBiT hemiprotein fragments. For orientation screenings, cells were transfected with two different concentrations (50 and 100 ng/well) of each receptor alone or in combination with the investigated partner (see figure legends) in the presence of empty vector (pcDNA3.1(+)) to normalize the total amount of DNA/well. For studies in the presence of increasing nontagged receptor competitors, 100 ng of each receptor pair (CB1R LgBiT + CB1R SmBiT, 5-HT2AR LgBiT + 5-HT2AR SmBiT, and 5-HT2AR LgBiT + CB1R SmBiT) were co-transfected with increasing concentrations of the different nontagged constructs (from 0 to 300 ng/well), and the total amounts of DNA/well were normalized with empty vector (pcDNA3.1(+)). For the screening of stapled peptides, 50 ng/well of both LgBiT CB1R and SmBiT 5-HT2AR were reverse-transfected as detailed previously. 24 h post- transfection, the cell culture medium was removed, and the cells were starved in FBS-free DMEM for 4 h at 37 °C in a 5% CO2 humidified atmosphere. The cell culture medium was replaced by 100 μl of NanoBiT assay buffer (same as for cAMP measurements), and the plates were pre-equilibrated for 1 h at RT in the dark. When peptide pretreatment was required, peptides were added over this pre-equilibration step, except when studying inhibition kinetics, when the peptides were administered immediately after the baseline luminescence recording. 25 μl/well of a 5× solution of the Nano-Glo® live cell reagent containing the cell-permeable furimazine substrate dissolved in Nano-Glo® LCS dilution buffer were added, and the luminescence was immediately monitored in CLARIOstar® Multimode Plate Reader (BMG Labtech) with no lens (1-s integration time/well for 1 h every minute).
Dose–response curves were fitted using a four-parameter logistic nonlinear regression mode. Peptide stability data were fitted using a nonlinear regression mode for dissociation kinetics. All statistical tests, curve fitting, and graphing were performed using GraphPad Prism 8 (GraphPad Software, La Jolla, CA).

Compound | effect on NanoBiT luminescence (heteromer disruption)
CCCC[C@H](NC(=O)[C@]1(C)CCC/C=C\CCC[C@](C)(NC(=O)[C@H](Cc2ccccc2)NC(=O)[C@H](CC(C)C)NC(=O)[C@H](CC(C)C)NC(=O)[C@H](CC(C)C)NC(=O)[C@@H](N)C(C)C)C(=O)N[C@@H](C(C)C)C(=O)N[C@@H](Cc2ccc(O)cc2)C(=O)N[C@@H](C)C(=O)N1)C(=O)N[C@@H](Cc1ccc(O)cc1)C(=O)N[C@H](C(=O)N[C@@H](CC(C)C)C(=O)N[C@@H](Cc1c[nH]c2ccccc12)C(N)=O)[C@@H](C)CC [Peptide 8] (H-VLLLF[S5]VYA[S5][Nle]YILW-NH2; staple (Z) 6-10) | not as efficient as compound 10
C=CCCC[C@](C)(NC(=O)[C@H](Cc1ccc(O)cc1)NC(=O)[C@@H](N)C(C)C)C(=O)N[C@@H](Cc1ccc(O)cc1)C(=O)N[C@@H](CCCC)C(=O)N[C@@](C)(CCCC=C)C(=O)N[C@H](C(=O)N[C@@H](CC(C)C)C(=O)N[C@@H](Cc1c[nH]c2ccccc12)C(N)=O)[C@@H](C)CC [Peptide 11] (H-VY[S5]Y[Nle][S5]ILW-NH2) | neither the version lacking the TAT amino acid sequence, compound 9, nor the nonstaple, compound 11, peptides induced any change
ETYLMFWIGVTSVLLLFIVYAYMYILWGRKKRRQRRR [TM5-TAT, reference compound] | decrease in the luminescence readout
GRKKRRQRRRKTLVLILVVLIICWGPLLAIMVY [TM6-TAT, reference compound] | decrease in the luminescence readout
